Data as given in PMC11394700, “Characterization of Stealth Liposome-Based Nanoparticles Encapsulating the ACAT1/SOAT1 Inhibitor F26: Efficacy and Toxicity Studies In Vitro and in Wild-Type Mice” (International Journal of Molecular Sciences, 2024).
Values joined by “and” are separate entries in the source; they are usually repeats but may differ in a detail not shown here. Identical values can stand only once. Like-named read-outs stand apart in the source and are kept apart here.

Experiments:
MEFs = assay: XTT cytotoxicity assay in MEFs; format: cell-based, mouse; conditions: for Effect on cell viability (XTT): MEFs, concentrations below 50 µM, 24 h
Method: (§1) An XTT cell proliferation assay kit (measures mitochondrial redox activity in metabolically active cells) was purchased from ATCC (Catalog No. 30-1011K, Manassas, VA, USA). Cell toxicity assessment was performed according to the manufacturer’s protocol. MEFs were seeded in a 96-well plate, 2500 cells per well, and cultured in full growth medium for 24 h. […] After the treatment, XTT reagent was added to each well, and the plates were incubated at 37 °C for 4 h. Following the incubation, absorbance was measured by using a BioTek Synergy Neo2 Hybrid Multimode Reader (BioTek, Winooski, VT, USA).

human ACAT2 = conditions: cited from earlier work
[1] = tested on: primary mouse neuronal cells; conditions: concentrations up to 10 µM; cited from earlier work
[2] = WT mice, individual samples, cited from earlier work
ACAT1 = target: T1, ACAT1 (Mus musculus, UniProt Q61263); assay: ACAT activity by [3H] oleate pulse assay in MEFs; format: cell-based
T1 construct: MEFs predominantly express ACAT1, not ACAT2; endogenous in cells; host or cells: mouse embryonic fibroblasts (MEFs)
T1 sequence (Q61263 1-540): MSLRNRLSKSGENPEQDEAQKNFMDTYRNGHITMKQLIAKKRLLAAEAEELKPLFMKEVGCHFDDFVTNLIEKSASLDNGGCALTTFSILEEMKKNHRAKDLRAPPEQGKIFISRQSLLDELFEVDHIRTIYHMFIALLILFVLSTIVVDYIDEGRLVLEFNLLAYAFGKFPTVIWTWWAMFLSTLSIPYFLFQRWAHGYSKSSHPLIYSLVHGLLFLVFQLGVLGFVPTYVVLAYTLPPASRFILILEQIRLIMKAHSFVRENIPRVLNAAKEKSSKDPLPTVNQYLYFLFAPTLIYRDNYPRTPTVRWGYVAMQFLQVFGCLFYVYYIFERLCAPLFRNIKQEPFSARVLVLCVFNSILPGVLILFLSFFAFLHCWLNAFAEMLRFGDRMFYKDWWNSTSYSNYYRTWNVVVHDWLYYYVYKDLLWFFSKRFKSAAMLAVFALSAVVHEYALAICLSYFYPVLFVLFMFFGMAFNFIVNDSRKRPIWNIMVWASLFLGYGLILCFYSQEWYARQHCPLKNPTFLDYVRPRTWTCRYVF
Method: The [^3H] oleate pulse assay was performed as described [76, 77]. […] For the washout assay, cells were washed and incubated with a conditioned drug-free medium for a given amount of time. After the incubation, cells were pulsed with 10 µL of 10 mM [^3H] oleate/BSA (containing 4 µCi) for 2 h in a 37 °C water bath with 5% CO2. At the end of the pulse period, cells were placed on ice, washed three times with cold PBS, and lysed with 0.2 M NaOH. Lysates were aliquoted first for protein measurement and the remaining extract was neutralized to pH 7.0 by adding 3 M HCl and 1 M KH2PO4 at pH 7. Lipids were then extracted with chloroform:methanol (2:1) and water. Samples were vortex-mixed and centrifuged at 500 rpm for 10 min. The top phase was removed, and the bottom phase was blow-dried by nitrogen gas. Dried samples were dissolved in ethyl acetate and spotted on a thin-layer chromatography (TLC) plate (Miles Scientific Silica gel HL, Catalog No. P46911). The solvent system used was petroleum ether:ethyl ether:acetic acid (90:10:1). The cholesteryl ester band with an Rf value at 0.9 was visualized by iodine staining, scraped from the plate, and measured with a scintillation counter.

[3] = XTT cytotoxicity assay in MEFs; format: cell-based, mouse; conditions: mouse; MEFs, 150 µM, 24 h; read-out: Cell viability (XTT)
Method: as §1

[4] = Plasma and brain pharmacokinetics after single IV dose (LC-MS/MS); format: in vivo, mouse; conditions: WT mice
Method: After intravenous administration of F26, mice were perfused with PBS at scheduled time points. Plasma and brain tissue were collected, flash-frozen in liquid nitrogen, and stored at −80 °C until analysis. […] Calibrator and quality control (QC) samples were prepared in the appropriate C57BL/6 mouse matrix: pooled plasma (anticoagulant: K3-EDTA, Innovative Research) and brain homogenate. The brain tissues were homogenized at 0.1 g/mL in deionized water using stainless-steel beads and a Next Advance Bullet Blender. Samples were cleaned up and analytes were extracted using protein precipitation followed by nitrogen dry down and reconstitution. […] Samples were vortex-mixed for 5 min then centrifuged for 10 min at 21,130× g and a total of 200 µL of clear supernatant was transferred to new tubes and dried under nitrogen in a water bath at 45 °C. The dried residues were reconstituted in 80:20 methanol:water (plasma: 400 µL, brain: 200 µL), vortex-mixed for 15 s and centrifuged at 21,130× g for 5 min. Finally, 100 µL of supernatant was transferred to amber autosampler vials, and 2 µL was injected into the LC-MS/MS system. For the quantitative analysis, each sample was prepared in triplicate and each replicate was injected onto the LC-MS/MS system three times. Liquid chromatography was performed on a Thermo Scientific Vanquish Flex UHPLC system using buffers A = 0.1% formic acid in water and B = 0.1% formic acid in methanol. A Thermo Scientific Accucore C18 50 × 2.1 mm 2.6 µm column fitted with a 10 × 2.1 mm 2.6 µm C18 guard cartridge maintained at 40 °C was used. […] A Thermo Scientific TSQ Quantis triple quadrupole mass spectrometer was operated in positive ion mode with a collision pressure of 1.5 mTorr for quantification. […] The heated electrospray ionization (H-ESI) source was operated with a spray voltage of 3500 V, vaporizer temperature 400 °C, ion transfer tube temperature 300 °C, sheath gas 23, aux gas 12 and ion sweep gas 0.5 (gases are arbitrary units). The quantitative range for F26 was 0.5–500 ng/mL for plasma samples and 0.3–200 ng/mL for brain samples. QC samples were prepared at 1.5, 150, and 400 ng/mL for plasma and at 0.9, 80, and 150 ng/mL for brain.

[5] = tested on: rat liver microsomal ACAT; set-up: method as in earlier work; conditions: F26 = compound 3 in ref; cited from earlier work
[6] = 4 h after single IV NP F12511 46 mg/kg
[7] = 12 h after single IV NP F12511 46 mg/kg
[8] = 24 h after single IV NP F12511 46 mg/kg
[9] = 4 h after single IV NP F26 51 mg/kg, individual samples, 51 mg/kg
[10] = 12 h after single IV NP F26 51 mg/kg, individual samples, 51 mg/kg
[11] = 24 h after single IV NP F26 51 mg/kg, individual samples, 51 mg/kg
[12] = 48 h after single IV NP F26 51 mg/kg, individual samples, 51 mg/kg

CCCCCCCCCCCCS[C@H](C(=O)Nc1cc(C)c(O)c(C)c1C)c1ccccc1 [F12511, eflucimibe]
Effect on cell viability (XTT) (MEFs): neither F12511 nor F26 affected cell viability | IC50 (human ACAT2): 0.11 µM | Toxicity in primary mouse neuronal cells [1]: no detectable toxicity | Brain Concentration [2, 6]: 56 ng/g and 83 ng/g and 98 ng/g and 95 ng/g | Plasma Concentration [2, 6]: 11,185 ng/mL and 13,184 ng/mL and 12,883 ng/mL and 31,224 ng/mL | Brain Concentration [2, 7]: 25 ng/g and 26 ng/g | Plasma Concentration [2, 7]: 345 ng/mL and 487 ng/mL | Brain Concentration [2, 8]: 7 ng/g and 9 ng/g | Plasma Concentration [2, 8]: 101 ng/mL and 21 ng/mL

CCCCCCCCCCCCS(=O)(=O)[C@](F)(C(=O)Nc1cc(C)c(O)c(C)c1C)c1ccccc1 [F26]
IC50 (ACAT1; [3H] oleate pulse assay, MEFs (predominantly ACAT1), read-out: IC50 against ACAT in MEFs): 0.003 µM | Potency as ACAT1 inhibitor compared to F12511 (fold) (ACAT1; from IC50 values in MEFs): close to seven-fold | viability at 24 h, 150 µM [3]: 81% | Concentration required to induce cell toxicity relative to that for ACAT1 inhibition (MEFs; 50 µM or higher vs IC50 in MEFs): over 1000 times | Effect on cell viability (XTT) (MEFs): neither F12511 nor F26 affected cell viability | Brain Concentration [4, 9]: 1148 ng/g | Brain-to-Plasma Ratio [4, 9]: 0.069 | Plasma Concentration [4, 9]: 16,540 ng/mL | Brain Concentration [4, 10]: 529 ng/g | Brain-to-Plasma Ratio [4, 10]: 0.125 | Plasma Concentration [4, 10]: 4243 ng/mL | Brain Concentration [4, 11]: 347 ng/g | Brain-to-Plasma Ratio [4, 11]: 0.283 | Plasma Concentration [4, 11]: 3218 ng/mL and 1226 ng/mL | Brain Concentration [4, 12]: 86 ng/g | Brain-to-Plasma Ratio [4, 12]: 1.377 | Plasma Concentration [4, 12]: 62 ng/mL | concentration at 4 h ([4]; C57BL/6, mouse, brain, iv, 51 mg/kg, 4 h after single IV NP F26 51 mg/kg, individual samples, read-out: Brain Concentration): 1120 ng/g | Kp at 4 h ([4]; C57BL/6, mouse, brain, iv, 51 mg/kg, 4 h after single IV NP F26 51 mg/kg, individual samples, read-out: Brain-to-Plasma Ratio): 0.061 | concentration at 12 h ([4]; C57BL/6, mouse, brain, iv, 51 mg/kg, 12 h after single IV NP F26 51 mg/kg, individual samples, read-out: Brain Concentration): 671 ng/g | Kp at 12 h ([4]; C57BL/6, mouse, brain, iv, 51 mg/kg, 12 h after single IV NP F26 51 mg/kg, individual samples, read-out: Brain-to-Plasma Ratio): 0.147 | concentration at 24 h ([4]; C57BL/6, mouse, brain, iv, 51 mg/kg, 24 h after single IV NP F26 51 mg/kg, individual samples): 571 ng/g | Kp at 24 h ([4]; C57BL/6, mouse, brain, iv, 51 mg/kg, 24 h after single IV NP F26 51 mg/kg, individual samples, read-out: Brain-to-Plasma Ratio): 0.178 | concentration at 48 h ([4]; C57BL/6, mouse, brain, iv, 51 mg/kg, 48 h after single IV NP F26 51 mg/kg, individual samples, read-out: Brain Concentration): 59 ng/g | Kp at 48 h ([4]; C57BL/6, mouse, brain, iv, 51 mg/kg, 48 h after single IV NP F26 51 mg/kg, individual samples, read-out: Brain-to-Plasma Ratio): 1.6 | Cmax ([4]; C57BL/6, mouse, brain, single IV NP F26 51 mg/kg, read-out: Cmax in brain): 1130 ng/g | half-life ([4]; C57BL/6, mouse, brain, single IV NP F26 51 mg/kg, read-out: T1/2 in brain (converted)): 10.5 h | Tmax ([4]; C57BL/6, mouse, brain, single IV NP F26 51 mg/kg, read-out: Tmax in brain): 4 h | concentration at 4 h ([4]; C57BL/6, mouse, plasma, iv, 51 mg/kg, 4 h after single IV NP F26 51 mg/kg, individual samples, read-out: Plasma Concentration): 18500 ng/mL | concentration at 12 h ([4]; C57BL/6, mouse, plasma, iv, 51 mg/kg, 12 h after single IV NP F26 51 mg/kg, individual samples, read-out: Plasma Concentration): 4570 ng/mL | concentration at 48 h ([4]; C57BL/6, mouse, plasma, iv, 51 mg/kg, 48 h after single IV NP F26 51 mg/kg, individual samples, read-out: Plasma Concentration): 37 ng/mL | Tmax ([4]; C57BL/6, mouse, plasma, single IV NP F26 51 mg/kg, non-compartmental, n = 2, read-out: Tmax in plasma): 4 h | AUC(0-t) ([4]; C57BL/6, mouse, plasma, single IV NP F26 51 mg/kg, read-out: AUClast in plasma): 229 µg·h/mL | Cmax ([4]; C57BL/6, mouse, plasma, single IV NP F26 51 mg/kg, read-out: Cmax in plasma): 17500 ng/mL | half-life ([4]; C57BL/6, mouse, plasma, single IV NP F26 51 mg/kg, read-out: T1/2 in plasma (converted)): 4.75 h | AUClast in brain ([4]; single IV NP F26 51 mg/kg): 23,398.14 ng.h/g | Potency for inhibiting rat liver microsomal ACAT [5]: more potent than F12511
